Data published in paper PMC5312321, “A general strategy to optimize immunogenicity of HLA-B*0702 restricted cryptic peptides from tumor associated antigens: Design of universal neo-antigen like tumor vaccines for HLA-B*0702 positive patients” (Oncotarget, 2016).
Entries after “also recorded” stand apart in the source; their conditions may differ. Marks after values point to notes of the source that are not given here.

What was measured:
[1] = system: HLA-B*0702 transgenic mice; assay: Vaccination of HLA-B*0702 transgenic mice; specific CTLs detected by cytotoxicity or IFNγ ELISPOT; format: in vivo, mouse; conditions: for cross recognition of the native peptide by CTLs induced by the optimized peptide in mice (in words): HLA-B*0702 transgenic mice, target cells loaded with native peptide; for Immunogenicity against optimized peptide (responding mice/vaccinated mice) / Immunogenicity against native peptide (responding mice/vaccinated mice): mice vaccinated twice with the optimized peptide; for Immunogenicity against optimized peptide (responding mice/vaccinated mice): cytotoxicity or IFNγ ELISPOT against target cells loaded with the optimized peptide; for Immunogenicity against native peptide (responding mice/vaccinated mice): target cells loaded with the corresponding native peptide; for immunogenicity in HLA-B*0702 transgenic mice (in words): specific CTL induction after vaccination, cytotoxicity (ratio 30/1) or IFNγ ELISpot; for Immunogenicity (number of responding mice/number of vaccinated mice): native peptides, 100 μg peptide in IFA s.c. with HBVcore128 helper epitope, twice at two weeks interval
Protocol: The HLA-B7 H-2 class-I knockout mice were previously described.
Mice were injected subcutaneously with 100 μg of peptide emulsified in Incomplete Freund's Adjuvant (IFA) in the presence of 150 μg of the I-A^b restricted HBVcore128 T helper epitope ([…]) twice at two weeks interval.
A particular protocol was applied for MAGE-A 274L9, with two injections of this peptide at two weeks interval and 15 days later one injection with each one of the native peptide.
On day 6 of culture the bulk responder populations were tested for specific cytotoxicity. […] Percentage of specific lysis was determined as: % Lysis = (Experimental Release-Spontaneous Release) / (Maximal Release-Spontaneous Release) × 100. Spontaneous release is obtained using medium only, maximum release with HCl 0.1 M.
Seven days after the last vaccination, spleens were removed and T cells were isolated by Ficoll centrifugation and tested ex vivo for the recognition of 10 μM of either the native or optimized peptide. IFNγ producing T cells were quantified by ELISpot using the Diaclone Kit Murine IFNγ ELISpot (Besançon, France) according to manufacturer's recommendations. 250 000 spleen T cells were distributed per well and tested for the recognition of 10 μM of either the native or optimized peptide. Positive control was Concanavalin A and negative control was medium alone. All conditions were tested in sixplicates.

[2] = system: CD8+ T cells from healthy donors; assay: In vitro induction of specific CTLs from PBMC of healthy HLA-B*0702 donors (IFNγ intracellular staining or ELISPOT); format: cell-based, human; conditions: for immunogenicity in vitro in human PBMC (in words): CD8+ T cells from healthy donors, four stimulations with peptide loaded autologous DC; for Immunogenicity against optimized peptide (number of positive culture/number of total cultures): human healthy donor PBMC stimulated with optimized peptide loaded DC, T2-B7 cells loaded with optimized peptide; for Immunogenicity against native peptide (number of positive culture/number of total cultures): human healthy donor PBMC stimulated with optimized peptide, T2-B7 cells loaded with corresponding native peptide
Protocol: CD8+ T cells from healthy donors were in vitro stimulated with autologous dendritic cells loaded with each optimized cryptic peptide. After four stimulations, proliferating cells were tested for the presence of IFNγ producing CTLs upon stimulation with T2-B7 cells loaded with optimized or native peptides either by intracellular IFNγ staining or by IFNγ ELISPOT assay.
PBMC were collected by leukapheresis from healthy HLA-A*B702 volunteers. Dendritic cells (DC) were produced from adherent cells cultured with 500 IU/ml GM-CSF and 500 IU/ml IL-4, in complete synthetic medium (AIMV) for seven days. On day 7, DCs were pulsed with 10 μM of peptide during 2 hours and CD8^+ cells were purified by negative selection with CD8 Dynabeads Untouched Human CD8. CD8^+ cells (2 × 10^5) + CD8^− cells (6 × 10^4) were stimulated with 3 × 10^4 peptide-pulsed DC in AIMV medium supplemented with 1000 IU/ml IL-6 and 5 IU/ml IL-12 in round-bottomed 96-well plates.
From day 7, cultures were stimulated weekly with peptide-loaded DC in the presence of 20 IU/ml IL-2 and 10 ng/ml IL-7, 1 μg/ml anti-CD40 and 500 IU/ml IFNγ.
After the third stimulation, CD8 cells were maintained in AIMV supplemented with 20 IU/ml IL-2 during 7 days. Cultures were starved overnight with AIMV and then were tested in an intracellular IFNγ and an IFNγ ELISpot assay.
Stimulated T cells (10^5) from each pool were incubated with 2 × 10^5 T2 cells loaded with stimulating peptide in the presence of 20 μg/ml Brefeldin-A (Sigma, Oakville, Canada). Six hours later they were washed, stained with r-phycoerythrin-conjugated anti-CD8 antibody (Caltag Laboratories, Burlingame, CA, USA) in PBS for 25 min at 4°C, washed again, and fixed with 4% PFA. The cells were then permeabilized with PBS, 0.5% BSA, 0.2% saponin (Sigma, Oakville, Canada), and labelled with an allophycocyanin-conjugated anti-IFNγ mAb (PharMingen, Mississauga, Canada) for 25 min at 4°C before analysis with a FACSCalibur® flow cytometer.
Stimulated T cells were splited in four pools and IFNγ producing T cells was quantified in each pool by ELISpot using the Diaclone Kit Human IFNγ ELISpot (Besançon, France) according to manufacturer's recommendations. 250 000 cells were distributed per well and tested for the recognition of 10 μM of either the native or optimized peptide. Positive control was Concanavalin A and negative control was medium alone or an irrelevant peptide. All conditions were tested in sixplicates.

HLA-B*0702 = target: T1, HLA-B*0702 (Homo sapiens, UniProt P01889); assay: Measurement of peptide relative affinity to HLA-B*0702 (surface expression on T2-B7 cells); format: cell-based; conditions: for RA (Relative Affinity): 37°C 16 hours, peptide 100 μM to 0.1 μM, ME-1 mAb staining, RA = concentration inducing 20% of HLA-B*0702 expression / that of reference R10V, mean ± SD, at least three experiments, ≥ 10 = 10 or not measurable; for binding to / affinity for HLA-B*0702 (in words): relative to reference peptide R10V
T1 construct: expressed in transfected cells; host or cells: human T2-B7 cells (T2 transfected with HLA-B*0702)
Protocol: The protocol used has been described previously. Briefly, T2-B7 cells were incubated at 37°C for 16 hours with peptides concentrations ranging from 100 μM to 0.1 μM (100 μM, 10 μM, 1 μM and 0.1μM), and then stained with ME-1 monoclonal antibody (mAb) to quantify the surface expression of HLA-B*0702. For each peptide concentration, the HLA-B*0702 specific staining was calculated as the percentage of staining obtained with 100 μM of the reference peptide CMV265–274 (R10V; […], SEQ ID NO: 9). The relative affinity (RA) was determined as: RA = (Concentration of each peptide that induces 20% of HLA-B*0702-expression/Concentration of the reference R10V peptide that induces 20% of HLA-B*0702 expression). In case of non-binders peptide, RA is not evaluable since the 20% of HLA-B*0702 expression is not reach even with the highest concentration of peptide.

| Sequence | immunogenicity in HLA-B*0702 transgenic mice (in words) [1] | RA (Relative Affinity) (HLA-B*0702) | binding to / affinity for HLA-B*0702 (in words) (HLA-B*0702) | Immunogenicity (number of responding mice/number of vaccinated mice) [1] | other results |
| --- | --- | --- | --- | --- | --- |
| APKHSDCLA [HER2/neu246A1, optimized Her2/neu246 modified at position 1 by an alanine] | immunogenic |  |  |  | cross recognition of the native peptide by CTLs induced by the optimized peptide in mice (in words) [1]: able to recognize target cells loaded with their corresponding native peptide; Immunogenicity against optimized peptide (responding mice/vaccinated mice) [1]: 8/12; Immunogenicity against native peptide (responding mice/vaccinated mice) [1]: 5/12; immunogenicity in vitro in human PBMC (in words) [2]: confirmed; Immunogenicity against optimized peptide (number of positive culture/number of total cultures) [2]: 2/4; Immunogenicity against native peptide (number of positive culture/number of total cultures) [2]: 1/4 |
| EPITKAEIL [MAGE-A4_121, MAGE-A derived native cryptic peptide] |  | ≥ 10 | low affinity |  |  |
| GPRALIETS [MAGE-A2_274, native peptide shared by MAGE-A2 and MAGE-A6] | non immunogenic |  |  | 0/3 |  |
| YPVTNAVITV [Hsp70_137, Hsp70 derived native cryptic peptide] | only the high affinity TERT4 was immunogenic | ≥ 10 | low affinity |  |  |
| APRGVPQIEV [HSP70_466, HSP70 derived native peptide] | immunogenic |  |  | 3/3 |  |
| APRSPLAPS [Her2/neu1069, Her2/neu derived native peptide] | immunogenic |  |  | 5/7 |  |
| SPRLQLSNL [CEA188L9, optimized CEA188 modified at last position by a leucine] | immunogenic |  |  |  | cross recognition of the native peptide by CTLs induced by the optimized peptide in mice (in words) [1]: able to recognize target cells loaded with their corresponding native peptide; Immunogenicity against optimized peptide (responding mice/vaccinated mice) [1]: 6/6; Immunogenicity against native peptide (responding mice/vaccinated mice) [1]: 6/6; immunogenicity in vitro in human PBMC (in words) [2]: confirmed; Immunogenicity against optimized peptide (number of positive culture/number of total cultures) [2]: 1/3; Immunogenicity against native peptide (number of positive culture/number of total cultures) [2]: 2/3 |
| GPRALAETS [MAGE-A1_267, native peptide shared by MAGE-A1 and MAGE-A4] | non immunogenic |  |  | 0/3 |  |
| SPRLQLSND [CEA188, CEA derived native peptide] | non immunogenic |  |  | 0/3 |  |
| APRTKAEML [MAGE-A1_121 A1R3, optimized MAGE-A1_121, alanine at position 1 and arginine at position 3] |  |  | high HLA-B*0702 affinity |  | RA (Relative Affinity) (HLA-B*0702; SD): 2.36 ± 0.28 |
| APVTKAEML [MAGE-A1_121 A1, MAGE-A1_121 with alanine at position 1] |  | ≥ 10 | fail to bind to HLA-B*0702 with high affinity |  |  |
| YPEEISSMVL [Hsp70_115, Hsp70 derived native cryptic peptide] | only the high affinity TERT4 was immunogenic | ≥ 10 | low affinity |  |  |
| SPREGPLPA [Her2/neu1151, Her2/neu derived native peptide] |  |  |  | 1/3 | immunogenicity in HLA-B*0702 transgenic mice (in words) ([1]; listed as HER2/neu1151): immunogenic; immunogenicity in HLA-B*0702 transgenic mice (in words) ([1]; listed as HER-2/neu1151): very weakly immunogenic |
| DPRRLVQLL [TERT444, TERT derived native cryptic peptide] | only the high affinity TERT4 was immunogenic; also recorded: non-immunogenic | ≥ 10 | low affinity |  |  |
| APRSLGLEL [Hsp70_397 R3L9, optimized Hsp70_397, arginine at position 3 and leucine at C-terminal position] |  |  | high HLA-B*0702 affinity |  | RA (Relative Affinity) (HLA-B*0702; SD): 1 ± 0.6 |
| SPKANKEIL [Her2/neu760, Her2/neu derived native peptide] | immunogenic |  |  | 4/9 |  |
| APRCRAVRSL [TERT4, TERT derived peptide with complete consensus motif A1P2R3L9, control, dominant peptide] | immunogenic |  | strongly bind to HLA-B*0702; also recorded: strong affinity |  | RA (Relative Affinity) (HLA-B*0702; SD): 0.74 ± 0.12 |
| EPVTKAEML [MAGE-A1_121, MAGE-A derived native cryptic peptide] |  | ≥ 10 | low affinity |  |  |
| GPRALVETS [MAGE-A3_274, native peptide shared by MAGE-A3 and MAGE-A12] | very weak immunogenicity; also recorded: very weakly immunogenic |  |  | 2/3* |  |
| EPFTKAEML [MAGE-A2_121, MAGE-A derived native cryptic peptide] |  | ≥ 10 | low affinity |  |  |
| GPKHSDCLA [Her2/neu246, Her2/neu derived native peptide] | non immunogenic |  |  | 0/9 |  |
| APLSLGLET [Hsp70_397, Hsp70 derived native cryptic peptide] | only the high affinity TERT4 was immunogenic | ≥ 10 | low affinity |  |  |
